Here are results for eleven molecules from ChEMBL document CHEMBL4130540, “Multifunctional iminochromene-2H-carboxamide derivatives containing different aminomethylene triazole with BACE1 inhibitory, neuroprotective and metal chelating properties targeting Alzheimer's disease” (Eur J Med Chem, 2017).

Broadly, the IC50 is the concentration needed to halve the response being measured. The term inhibition denotes how much of the control response was suppressed.

Calls of active or inactive are those of the source. The calls are words filed in the database; no cut-off is given here.

Series [1] has as its system PC-12. In words: Neuroprotection against amyloid beta (25 to 35)-induced cell death in rat PC12 cells preincubated for 3 hrs followed by amyloid beta addition measured after 24 hrs by MTT assay. The series is classed as functional, cell-based. In general terms: Tetrazolium dyes change colour on reduction, which living cells bring about.
Series [2] has as its target T1, Beta-secretase 1 (Homo sapiens, UniProt P56817). In words: Inhibition of recombinant human BACE1 (1 to 460 residues) expressed in baculovirus infected insect cells at 10 uM using Rh-EVNLDAEFK-Quencher as substrate incubated under dark condition for 90 mins by FRET assay relative to control.
The subject of series [3] is PC-12. In words: Cytotoxicity against rat PC12 cells up to 100 uM after 24 hrs by MTT assay. The conditions noted are these: pc-12, 24 h. Format: cell-based.
Series [4] can be described thus: Metal chelating activity assessed as compound-Fe2+ complex formation at 400 uM preincubated with ferrous ion FeCl2 followed by ferrozine addition measured after 10 mins by spectroscopic method.
The target in series [5] is T1, Beta-secretase 1. In words: Inhibition of recombinant human BACE1 (1 to 460 residues) expressed in baculovirus infected insect cells at 50 uM using Rh-EVNLDAEFK-Quencher as substrate incubated under dark condition for 90 mins by FRET assay relative to control.
Series [6] addresses T1, Beta-secretase 1. In words: Inhibition of recombinant human BACE1 (1 to 460 residues) expressed in baculovirus infected insect cells using Rh-EVNLDAEFK-Quencher as substrate incubated under dark condition for 90 mins by FRET assay.
In series [7] the test system is PC-12. In words: Neuroprotection against amyloid beta (25 to 35)-induced cell death in rat PC12 cells at 10 uM preincubated for 3 hrs followed by amyloid beta addition measured after 24 hrs by MTT assay relative to control. The series is classed as functional.
Series [8] concerns PC-12. In words: Neuroprotection against amyloid beta (25 to 35)-induced cell death in rat PC12 cells at 25 uM preincubated for 3 hrs followed by amyloid beta addition measured after 24 hrs by MTT assay relative to control. The series is classed as functional.
The nature of series [9]: Metal chelating activity assessed as mole fraction of compound required to show 3:2 stoichiometry for Fe2+-compound complex at 20 uM after 30 min by UV-Visible spectroscopic method.
Series [10] in a line: Metal chelating activity assessed as compound-Fe2+ complex formation at 20 uM after 30 mins by UV-Visible spectroscopic method.
The subject of series [11] is PC-12. Briefly: Neuroprotection against amyloid beta (25 to 35)-induced cell death in rat PC12 cells at 15 uM preincubated for 3 hrs followed by amyloid beta addition measured after 24 hrs by MTT assay relative to control. The series is classed as functional.

T1 sequence (P56817 whole entry, the tested form may be a part): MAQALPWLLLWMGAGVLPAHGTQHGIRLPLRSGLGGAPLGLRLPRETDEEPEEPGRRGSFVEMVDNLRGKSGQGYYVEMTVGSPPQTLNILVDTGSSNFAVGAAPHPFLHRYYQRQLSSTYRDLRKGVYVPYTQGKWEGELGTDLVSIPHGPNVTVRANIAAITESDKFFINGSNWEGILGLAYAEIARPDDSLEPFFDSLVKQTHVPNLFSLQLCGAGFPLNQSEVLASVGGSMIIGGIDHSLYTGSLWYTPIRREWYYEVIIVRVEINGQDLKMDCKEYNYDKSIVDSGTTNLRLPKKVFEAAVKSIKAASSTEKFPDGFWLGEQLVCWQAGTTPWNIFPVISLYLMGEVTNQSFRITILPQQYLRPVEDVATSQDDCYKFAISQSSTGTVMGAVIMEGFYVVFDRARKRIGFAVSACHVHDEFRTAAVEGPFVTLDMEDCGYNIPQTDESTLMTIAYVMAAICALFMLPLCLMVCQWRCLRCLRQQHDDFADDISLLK

`N=c1oc2ccccc2cc1C(=O)Nc1cc(Br)ccc1NCc1cn(CCCCN2C(=O)c3ccccc3C2=O)nn1`: the IC50 in the series on PC-12 [1] and at Beta-secretase 1 [6] was 6.8 µM in each case. The inhibition turned out to be 55.7% at Beta-secretase 1 [2] and 77.6% on Beta-secretase 1 [5]. The Activity result in the series on PC-12 [3] was “Non-Toxic”; in series [4] it was 12.8%; in the series on PC-12 [7] it was 67.8%.

As for `N=c1oc2ccccc2cc1C(=O)Nc1cc(Br)ccc1NCc1cn(Cc2cccc(Cl)c2Cl)nn1`, the half-maximal inhibitory concentration (IC50) is 18.9 µM with PC-12 [1] and 15.6 µM on Beta-secretase 1 [6]. Further, the inhibition at Beta-secretase 1 [2] is 47.8%; at Beta-secretase 1 [5], 62%. Further, the Activity entry in the series with PC-12 [3] is recorded as “Non-Toxic”; in the series on PC-12 [8], 57.2%; with PC-12 [7], 23.6%.

Regarding `N=c1oc2ccccc2cc1C(=O)Nc1cc(Br)ccc1NCc1cn(Cc2ccc(F)cc2)nn1`, the inhibition on Beta-secretase 1 [2] worked out at 21.3%; at Beta-secretase 1 [5], 45.9%. For the same molecule, the Activity result is recorded as “Non-Toxic” with PC-12 [3], 22.2% with PC-12 [8] and 13.1% in the series with PC-12 [7].

Turning to `O=C(O)/C=C/c1ccc(O)c(O)c1` [CAFFEIC ACID], half-maximal inhibition with PC-12 [1] (IC50) required 75.8 µM.

Take `N=c1oc2ccccc2cc1C(=O)Nc1cc(Br)ccc1NCc1cn(Cc2ccccc2)nn1`: the results for the inhibition at Beta-secretase 1 [2] and at Beta-secretase 1 [5] were 12.1% and 25.2%, respectively. Further, in the series with PC-12 [3], the Activity entry is listed as “Non-Toxic”.

Consider `N=c1oc2ccccc2cc1C(=O)Nc1cc(Br)ccc1NCc1cn(Cc2ccc(Cl)c(Cl)c2)nn1`, for which the IC50 with PC-12 [1] was found to be 90.5 µM; at Beta-secretase 1 [6], 7.5 µM. Besides, the inhibition amounted to 52% at Beta-secretase 1 [2] and 60.8% at Beta-secretase 1 [5]. Also, the values for the Activity result in the series on PC-12 [3], with PC-12 [8] and in the series with PC-12 [7] were “Non-Toxic”, 49.8% and 21.8%, respectively.

Turning to `N=c1oc2ccccc2cc1C(=O)Nc1cc(Br)ccc1NCc1cn(CCCN2C(=O)c3ccccc3C2=O)nn1`, the IC50 amounted to 7.9 µM with PC-12 [1] and 2.2 µM on Beta-secretase 1 [6]. For the same molecule, the figures for the inhibition at Beta-secretase 1 [2] and on Beta-secretase 1 [5] were 83.5% and 84.2%, respectively. The Activity entry was “Non-Toxic” with PC-12 [3], 100% with PC-12 [8], 10.2% in [4] and 78.8% in the series on PC-12 [7].

Regarding `O=C(O)CN(CCN(CC(=O)O)CC(=O)O)CC(=O)O`, in series [4], the Activity was found to be 96.4%.

Turning to `N=c1oc2ccccc2cc1C(=O)Nc1cc(Br)ccc1NCc1cn(Cc2ccc(Br)cc2)nn1`, the Activity in [9] was 1.5 molar ratio; in the series with PC-12 [3], “Non-Toxic”; in the series with PC-12 [8] it was 37.5%; in series [4], 45.2%; with PC-12 [7] it was 16.4%. Besides, the IC50 in the series on PC-12 [1] came out at 37.8 µM; at Beta-secretase 1 [6], 6.4 µM. Further, the inhibition on Beta-secretase 1 [2] worked out at 72.3%; on Beta-secretase 1 [5] it was 100%. In series [10], the outcome was Active.

`COc1ccc(Cn2cc(CNc3ccc(Br)cc3NC(=O)c3cc4ccccc4oc3=N)nn2)cc1`: the inhibition at Beta-secretase 1 [2] was determined as 10%; at Beta-secretase 1 [5] it was 34.5%. In addition, the Activity result with PC-12 [3] was “Non-Toxic”; with PC-12 [8], 22%; in the series on PC-12 [7], 28.4%.

As for `Cc1ccc(Cn2cc(CNc3ccc(Br)cc3NC(=O)c3cc4ccccc4oc3=N)nn2)cc1`, the Activity in the series with PC-12 [11] is on record as 83.8%; in the series on PC-12 [3], “Non-Toxic”; in the series on PC-12 [8] it was 19.2%. In addition, the inhibition is 38.3% at Beta-secretase 1 [2] and 52.4% on Beta-secretase 1 [5].
